Data on one compound can be found in publication PMC11088696, “An integrated multi-omics approach reveals polymethoxylated flavonoid biosynthesis in Citrus reticulata cv. Chachiensis” (Nature Communications, 2024).

In test [1] the test system is T1, CcOMT1.
T1 construct: full-length cDNA from CRC leaf cDNA library, BamHI/XhoI in pET-28a(+), E. coli BL21(DE3), Ni-NTA purified; ORF printed 1080 bp but 366 aa printed (inconsistent); primers encode N-terminus MGSTSSE, C-terminus MEFLKSA
Kind of test: HPLC of methylated product, Michaelis-Menten non-linear fit. It counts as biochemical, Citrus reticulata. Conditions: 5 mM SAM, pH 6.0 phosphate, 50 °C, 2 h, 1 mM DTT. The method, then: HPLC of methylated product, Michaelis-Menten non-linear fit on CcOMT1 | To determine the kinetic parameters of CcOMT1, the Michaelis–Menten constant (Km) was determined

Test [2] has as its system T1, CcOMT1. The description is as above. The following applies: 5 mM SAM, pH 6.0 phosphate, 50 °C, 2 h, 1 mM DTT. The format is biochemical, Citrus reticulata. The text has this: HPLC of methylated product, Michaelis-Menten non-linear fit on CcOMT1 | For kinetic studies of CcOMT1 and its variant CcOMT1-W141Y toward natsudaidain
The source holds these as a separate data set.

For orientation: Km means the substrate concentration at which the rate is half of its maximum. For `COc1ccc(-c2oc3c(OC)c(OC)c(OC)c(OC)c3c(=O)c2O)cc1OC` [compound 1, natsudaidain], the figures for the Km with CcOMT1 [1] and with CcOMT1 [2] were 25.4 ± 11.3 µM and 20.8 ± 7.6 µM, respectively.
